# In PubChem BioAssay (NCI):
# Values joined by “and” are separate entries in the source; they are usually repeats but may differ in a detail not shown here. Identical values can stand only once.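 A five-concentration, 48-hour dose response in 96-well plates underlies each endpoint, interpolated linearly between surrounding concentrations. At the GI50, growth is halved. Definition used: TGI = concentration required for complete inhibition of growth.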
# Experiments:
# Test in all cases: DTP human tumour cell line panel, 48 h
# NCI-H23 lung = tested on: NCI-H23 lung
# T-47D breast = tested on: T-47D breast
# SNB-75 CNS = tested on: SNB-75 CNS
# HCT-116 colon = tested on: HCT-116 colon
# A549 NSCLC = tested on: A549 NSCLC
# MOLT-4 leukemia = tested on: MOLT-4 leukemia
# NCI-H460 lung = tested on: NCI-H460 lung
# M14 melanoma = tested on: M14 melanoma
# UO-31 renal = tested on: UO-31 renal
# 786-0 renal = tested on: 786-0 renal
Structure (SMILES),GI50 (NCI-H23 lung),TGI (NCI-H23 lung) [µM],GI50 (T-47D breast),TGI (T-47D breast) [µM],GI50 (SNB-75 CNS),TGI (SNB-75 CNS) [µM],GI50 (HCT-116 colon),TGI (HCT-116 colon) [µM],GI50 (A549 NSCLC),TGI (A549 NSCLC) [µM],GI50 (MOLT-4 leukemia),TGI (MOLT-4 leukemia),GI50 (NCI-H460 lung),TGI (NCI-H460 lung) [µM],GI50 (M14 melanoma),TGI (M14 melanoma) [µM],GI50 (UO-31 renal),TGI (UO-31 renal),GI50 (786-0 renal),TGI (786-0 renal) [µM]
CCn1c(-c2nonc2N)nc2c(C#CC(C)(C)O)nc(OC[C@@H](N)c3ccccc3)cc21,5.13 µM,10.8,3.8 µM,8.24,2.45 µM,5.66,4.13 µM,7.63,4.36 µM,9.18,4.42 µM,16 µM,3.97 µM,8.12,4.52 µM,8.11,5.08 µM,9.4 µM,2.98 µM,6.35
COCCOc1ccc(-c2nc3ccc(-c4nc5ccc(N6CCN(C)CC6)cc5[nH]4)cc3[nH]2)cc1,1.21 µM,5.09,1 µM,9.09,0.486 µM,3.14,0.358 µM,2.46,8.05 µM,35.2,2.81 µM,> 100 µM,3.63 µM,14.7,0.449 µM,2.5,29.4 µM,> 100 µM,1.64 µM,3.81
CCCCCCCCCCn1cc[n+](C)c1,0.648 µM,28,1.61 µM,> 21.7,2.69 µM,11.4,1.37 µM,> 36.9,3.79 µM,22.5,2.9 µM,29 µM,3.52 µM,19.2,1.9 µM,13.5,10.3 µM,50.7 µM,2.39 µM,18.1
COc1ccc2nc3cc(Cl)ccc3c(NCCNCC(C)O)c2c1 (stereo not given),1.93 µM,6.16,2.16 µM,6.72,1.9 µM,8.71,0.751 µM,3.17,1.52 µM,3.16,0.512 µM,11.1 µM,0.668 µM,2.99,1.68 µM,3.6,1.73 µM,4.85 µM,1.68 µM,5.83
O=C1NC(=NC(CO)Cc2ccccc2)S/C1=C\c1ccc2ncccc2c1 (stereo not given),17.7 µM and 2.23 µM,> 25,21.1 µM and 5.26 µM,> 25,10.8 µM and 1.77 µM,> 25,9.89 µM and 1.13 µM,> 25,16.4 µM and 2.96 µM,> 25,12.2 µM and 7.45 µM,> 25 µM and 18.7 µM,14.6 µM and 3.02 µM,> 25,14 µM and 7.08 µM,> 25,16.4 µM and 5.82 µM,> 25 µM and 16.8 µM,> 25 µM and 6.96 µM,> 25
c1ccc(Sc2ncnc3ccccc23)cc1,8.52 µM,25.7,9.72 µM,28.4,12.1 µM,35,10.9 µM,23.7,18.1 µM,68.3,4.98 µM,36 µM,24.2 µM,> 100,12.3 µM,27.6,5.07 µM,21.1 µM,14.9 µM,34.5
Cc1nnc(NC(=O)c2nc(S(=O)(=O)Cc3ccc(F)cc3)ncc2Cl)s1,12.5 µM,32.5,2.45 µM,14.1,3.25 µM,17.6,1.83 µM,3.67,18.8 µM,35.3,2.02 µM,4.38 µM,17.4 µM,35.1,2.88 µM,10.3,7.15 µM,20.6 µM,4.32 µM,15.5
